In PMC3758303 (PLoS ONE, 2013):

Experiments:
[1] = system: genome-length HCV-RNA (1B-4 strain of genotype 1b) replication in HuH-7-derived 1B-4R cells; assay: 1B-4R RL assay; assay type: cell-based; details: Hepatitis C virus, 1B-4R assay, HuH-7, HCV strain 1B-4, 72 hrs
Procedure: (§1) RSc and D7 cells were derived from the cell lines HuH-7 and Li23, respectively, were cultured as described previously, [29]. HuH-7-derived OR6 [13], AH1R [30], and 1B-4R [Ikeda et al., submitted] cells harboring genome-length HCV-RNA and HuH-7-derived polyclonal sOR [31], and RSc-JRN/35B [Ikeda et al., submitted] cells harboring an HCV subgenomic replicon were cultured with medium in the presence of G418 (0.3 mg/ml; Geneticin, Invitrogen, Carlsbad, CA) as described previously. Li23-derived ORL8 [20], ORL11 [20], 1B-4RL [Ikeda et al., submitted], and KAH5RL [Ikeda et al., submitted] cells harboring genome-length HCV-RNA were maintained with medium in the presence of G418 (0.3 mg/ml) as described previously. Li23-derived polyclonal sORL8 and sORL11 cells harboring an HCV replicon, which were established by the transfection of ORN/3-5B/QR,KE,SR RNA into the cured OL8 and OL11 cells, respectively, were also cultured with medium in the presence of G418 (0.3 mg/ml) as described previously. Cured cells, from which the HCV-RNA had been eliminated by IFN treatment, were also maintained with medium in the absence of G418 as described previously. […] Therefore, when HCV-RNA is excluded from the cells or when its level is decreased, the cells are killed in the presence of G418. […]
(§2) The SI value of each reagent was determined by dividing the CC50 value by the EC50 value.

[2] = system: genome-length HCV-RNA (AH1 strain of genotype 1b) replication in HuH-7-derived AH1R cells; assay: AH1R RL assay; assay type: cell-based; details: Hepatitis C virus, HuH-7, HCV strain AH1, 72 hrs
Procedure: as §1, §2

[3] = WST-1 cell proliferation assay, AH1R cells; assay type: cell-based; details: human
Procedure: (§3) The WST-1 cell proliferation assay was performed as described previously. Briefly, The cells were plated onto 96-well plates (1×10^3 cells per well) in triplicate and then treated with each reagent at several concentrations for 72 hrs. After treatment, the cells were subjected to the WST-1 cell proliferation assay (Takara Bio, Otsu, Japan) according to the manufacturer’s protocol. This assay is based on the enzymatic cleavage of the tetrazolium salt WST-1 to formazan by cellular mitochondrial dehydrogenases present in viable cells. Therefore, there are […] the value of the WST-1 assay becomes zero. The experiments were performed at least in triplicate. From the assay results, the 50% cytotoxic concentration (CC50) of each reagent was determined.

[4] = system: genome-length HCV-RNA (O strain of genotype 1b) replication in Li23-derived ORL8 cells; assay: ORL8 RL assay; assay type: cell-based, hepatitis C virus; details: for EC50: Hepatitis C virus, Li23, HCV strain O, 72 hrs, RL assay
Procedure: RSc and D7 cells were derived from the cell lines HuH-7 and Li23, respectively, were cultured as described previously, [29]. HuH-7-derived OR6 [13], AH1R [30], and 1B-4R [Ikeda et al., submitted] cells harboring genome-length HCV-RNA and HuH-7-derived polyclonal sOR [31], and RSc-JRN/35B [Ikeda et al., submitted] cells harboring an HCV subgenomic replicon were cultured with medium in the presence of G418 (0.3 mg/ml; Geneticin, Invitrogen, Carlsbad, CA) as described previously. Li23-derived ORL8 [20], ORL11 [20], 1B-4RL [Ikeda et al., submitted], and KAH5RL [Ikeda et al., submitted] cells harboring genome-length HCV-RNA were maintained with medium in the presence of G418 (0.3 mg/ml) as described previously. Li23-derived polyclonal sORL8 and sORL11 cells harboring an HCV replicon, which were established by the transfection of ORN/3-5B/QR,KE,SR RNA into the cured OL8 and OL11 cells, respectively, were also cultured with medium in the presence of G418 (0.3 mg/ml) as described previously. […] Therefore, when HCV-RNA is excluded from the cells or when its level is decreased, the cells are killed in the presence of G418.
RL assay was performed as described previously, [24]. Briefly, the cells were plated onto 24-well plates (2×10^4 cells per well) in triplicate and then treated with each reagent at several concentrations for 72 hrs. After treatment, the cells were subjected to luciferase assay using the RL assay system (Promega, Madison, WI). The experiments were performed at least in triplicate. From the assay results, the 50% effective concentration (EC50) of each reagent was determined.
as §2

[5] = WST-1 cell proliferation assay, ORL11 cells; assay type: cell-based; details: human
Procedure: as §3

[6] = WST-1 cell proliferation assay, KAH5RL cells; assay type: cell-based; details: human
Procedure: as §3

[7] = WST-1 cell proliferation assay, sOR cells; assay type: cell-based; details: human
Procedure: as §3

[8] = WST-1 cell proliferation assay, sORL8 cells; assay type: cell-based; details: human
Procedure: as §3

[9] = WST-1 cell proliferation assay, sORL11 cells; assay type: cell-based; details: human
Procedure: as §3

[10] = system: subgenomic HCV-JFH-1 replicon in RSc-JRN/35B cells; assay: RSc-JRN/35B RL assay; assay type: cell-based, hepatitis C virus
Procedure: RSc and D7 cells were derived from the cell lines HuH-7 and Li23, respectively, were cultured as described previously, [29]. HuH-7-derived OR6 [13], AH1R [30], and 1B-4R [Ikeda et al., submitted] cells harboring genome-length HCV-RNA and HuH-7-derived polyclonal sOR [31], and RSc-JRN/35B [Ikeda et al., submitted] cells harboring an HCV subgenomic replicon were cultured with medium in the presence of G418 (0.3 mg/ml; Geneticin, Invitrogen, Carlsbad, CA) as described previously. Li23-derived ORL8 [20], ORL11 [20], 1B-4RL [Ikeda et al., submitted], and KAH5RL [Ikeda et al., submitted] cells harboring genome-length HCV-RNA were maintained with medium in the presence of G418 (0.3 mg/ml) as described previously. Li23-derived polyclonal sORL8 and sORL11 cells harboring an HCV replicon, which were established by the transfection of ORN/3-5B/QR,KE,SR RNA into the cured OL8 and OL11 cells, respectively, were also cultured with medium in the presence of G418 (0.3 mg/ml) as described previously. […]
We next examined whether N-89 and N-251 worked in an HCV production system using HCV-JFH-1 strain (genotype 2a). […] To clarify whether anti-HCV activity depends on the difference of genotype or assay model, we evaluated the activities of N-89 and N-251 using RSc-JRN/35B [Ikeda et al., submitted] cells harboring a subgenomic HCV-JFH-1 replicon as an additional assay.

Row | SMILES | EC50 [1] | EC50 [2] | CC50 at 72 h [3] | anti-HCV activity (suppression) ([4]; 1 µM in ORL8 cells, without a decrease in cell viability) | EC50 ([4]; ORL8 assay) | EC99 value ([4]; ORL8 assay) | CC50 at 72 h [5] | CC50 at 72 h [6] | CC50 at 72 h [7] | CC50 at 72 h [8] | CC50 at 72 h [9] | anti-HCV activity, subgenomic HCV-JFH-1 replicon [10]
1 | C1CCCCCC2(CCCCC1)OOCCCOO2 [N-89, 1,2,6,7-Tetraoxaspiro[7.11]nonadecane] | 420 nM | 25 nM | > 500 nM | > 99% | 89 nM | 1 µM | 560 nM | 2500 nM | 1700 nM | 1100 nM | 1700 nM | did not show any anti-HCV activities
2 | OCCCCCCC1COOC2(CCCCCCCCCCC2)OOC1 [N-251, 6-(1,2,6,7-tetraoxaspiro[7.11]nonadec-4-yl)hexan-1-ol] | 980 nM | 140 nM | 490 nM | – | 100 nM | – | 1100 nM | 2800 nM | 2200 nM | 4100 nM | 3100 nM | did not show any anti-HCV activities
